Assay results from US20250171431A1, “HETEROCYCLIC INHIBITORS OF IGF-1R FOR TREATMENT OF DISEASE” (HORIZON THERAPEUTICS IRELAND DAC, priority 2023, published 2025).

Molecular target: IGF-1R (Homo sapiens (Human), UniProt P08069)
Assay: Example B-1: IGF-1R Assay (PC3 cells, IGF1 stimulation, AlphaLISA)
Assay type: cell-based
Settings: 200 ng/mL IGF1 stimulation, read-out: Biological Activity against IGF-1R IC50
Procedure: 50K PC3 cells were seeded on day 1 in 50 μL of media in 96-well plate and incubated overnight at 37° C., 5% CO2. On day 2, all cells were expected to be at 80-90% confluency. Cells were starved for two hours by changing the media to 90 μL of EMEM serum-free media and incubated for 2 hours. Next, cells were treated with 10 μL of 10× concentrated and 3× serially diluted compounds for two hours. It makes 1× of compounds in 100 μL media. This was followed by stimulation of cells with 11×IGF1 for 30 min in 10 μL of serum-free EMEM media at the final concentration of 200 ng/mL.
The media was removed and replaced by 50 μL of 1× lysis buffer from the AlphaLISA kit (with 1× of cOmplete™ protease inhibitor). The plates were sealed, and cells were allowed to lyse for 10 min in the shaker before storing the plate at −20° C. until used. The AlphaLISA assay with processed cell lysates were performed as described in the protocol. Briefly, 10 μL of the undiluted sample were loaded to 384 well Optiplates and 5 μL of the acceptor mix (as described in the AlphaLISA kit) was added to each well. The plates were sealed and briefly vortexed followed by the incubation at RT for 3 hours. In the dark, 5 μL of donor mix was added to each well. All plates were sealed and stored at RT overnight. The plates were read in EnVision reader using standard AlphaLISA settings.
Compound activity was analyzed using CBIS data analysis suite (ChemInnovation, CA). Percentage inhibition was calculated using the following formula: % Inhibition=100%×(1−(mean RLU of test sample−mean RLU of vehicle control)/(mean RLU of EC80 control−mean RLU of vehicle control)). The activity for representative examples of the invention is shown in the following table, wherein A: IC50≤500 nM; B: 500 nM<IC50≤2 μM; C: 2 μM<IC50≤10 μM; D: IC50>10 μM.

Chain of IGF-1R (P08069 31-1367): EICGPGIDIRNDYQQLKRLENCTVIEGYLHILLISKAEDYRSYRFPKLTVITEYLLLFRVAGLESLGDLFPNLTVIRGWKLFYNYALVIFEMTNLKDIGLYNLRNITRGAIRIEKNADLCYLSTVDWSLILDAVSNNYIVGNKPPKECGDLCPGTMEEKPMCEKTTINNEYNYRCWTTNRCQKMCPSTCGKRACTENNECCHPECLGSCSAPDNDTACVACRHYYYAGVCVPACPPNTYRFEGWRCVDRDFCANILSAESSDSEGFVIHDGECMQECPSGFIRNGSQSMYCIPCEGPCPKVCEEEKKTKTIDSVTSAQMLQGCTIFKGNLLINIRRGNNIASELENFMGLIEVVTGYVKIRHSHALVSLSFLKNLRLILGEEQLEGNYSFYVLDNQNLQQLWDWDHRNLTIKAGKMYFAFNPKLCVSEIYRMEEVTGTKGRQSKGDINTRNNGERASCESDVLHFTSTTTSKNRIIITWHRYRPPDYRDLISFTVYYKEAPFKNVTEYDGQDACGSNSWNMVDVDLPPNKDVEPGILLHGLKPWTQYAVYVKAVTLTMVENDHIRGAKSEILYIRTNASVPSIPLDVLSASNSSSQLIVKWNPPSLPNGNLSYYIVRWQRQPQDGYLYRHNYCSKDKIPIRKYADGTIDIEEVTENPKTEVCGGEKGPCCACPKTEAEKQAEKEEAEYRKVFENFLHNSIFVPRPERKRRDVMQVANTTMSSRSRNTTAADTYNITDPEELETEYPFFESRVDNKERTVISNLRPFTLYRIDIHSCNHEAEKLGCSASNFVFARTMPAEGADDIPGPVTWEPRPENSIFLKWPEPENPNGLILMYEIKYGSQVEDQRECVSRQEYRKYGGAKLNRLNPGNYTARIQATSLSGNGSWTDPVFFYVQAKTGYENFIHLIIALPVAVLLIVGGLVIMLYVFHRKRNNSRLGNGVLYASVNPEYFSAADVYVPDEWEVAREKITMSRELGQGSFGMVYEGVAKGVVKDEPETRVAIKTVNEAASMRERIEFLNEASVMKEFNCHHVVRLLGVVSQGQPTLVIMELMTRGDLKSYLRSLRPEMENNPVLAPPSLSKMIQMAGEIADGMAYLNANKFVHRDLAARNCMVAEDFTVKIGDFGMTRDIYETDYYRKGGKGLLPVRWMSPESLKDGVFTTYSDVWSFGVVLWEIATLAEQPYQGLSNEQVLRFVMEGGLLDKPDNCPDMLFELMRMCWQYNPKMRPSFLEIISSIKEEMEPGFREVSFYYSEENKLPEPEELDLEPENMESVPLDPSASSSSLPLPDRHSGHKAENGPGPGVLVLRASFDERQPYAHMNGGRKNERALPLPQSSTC

Compound | IC50
COC1CCc2ncc(Nc3ccnc(Nc4ccc(OCCCN5CCOCC5)cc4)n3)cc2C1 (centres unmarked) [Compound 67, 4-(6-methoxy-5,6,7,8-tetrahydro-3-quinolylamino)-2-[p-(3-morpholinopropoxy)phenylamino] pyrimidine] | 500 to 2000 nM
c1cc(Nc2cnc3c(c2)CC2(CC3)OCCO2)nc(Nc2ccc(OCCCN3CCOCC3)cc2)n1 [Compound 68, 4-(7′,8′-dihydro-5′H-spiro[1,3-dioxolane-2,6′-quinolin]-3′-ylamino)-2-[p-(3-morpholinopropoxy)phenylamino] pyrimidine] | ≤ 500 nM
COc1cc(Nc2nccc(Nc3cnc4c(c3)CCC(C)C4)n2)ccc1OCCCN1CCCCC1 (centres unmarked) [Compound 69, 2-[3-methoxy-4-(3-piperidinopropoxy)phenylamino]-4-(7-methyl-5,6,7,8-tetrahydro-3-quinolylamino)pyrimidine] | ≤ 500 nM
COc1cc(Nc2nccc(Nc3cnc4c(c3)C3CCC(C4)C3)n2)ccc1OCCCN1CCCCC1 (centres unmarked) [Compound 70, 4-{6-azatricyclo[7.2.1.0^2,7]dodeca-2(7),3,5-trien-4-ylamino}-2-[3-methoxy-4-(3-piperidinopropoxy)phenylamino] pyrimidine] | ≤ 500 nM
COc1cc(Nc2nccc(Nc3cnc4c(c3)CC[C@@H](C)C4)n2)ccc1OCCCN1CCCCC1 [Compound 71, 4-[(R)-7-methyl-5,6,7,8-tetrahydro-3-quinolylamino]-2-[3-methoxy-4-(3-piperidinopropoxy)phenylamino] pyrimidine] | ≤ 500 nM
CCc1ccc2cc(Nc3ccnc(Nc4ccc(OCCCN5CCCCC5)c(OC)c4)n3)cnc2c1 [Compound 72, 4-(7-ethyl-3-quinolylamino)-2-[3-methoxy-4-(3-piperidinopropoxy)phenylamino]pyrimidine] | ≤ 500 nM
COc1cc(Nc2nccc(Nc3cnc4c(c3)CCCC4(C)C)n2)ccc1OCCCN1CCCCC1 [Compound 73, 4-(8,8-dimethyl-5,6,7,8-tetrahydro-3-quinolylamino)-2-[3-methoxy-4-(3-piperidinopropoxy)phenylamino] pyrimidine] | ≤ 500 nM
COc1cc(Nc2nccc(Nc3cnc4c(c3)CCCC4C(C)(C)C)n2)ccc1OCCCN1CCCCC1 (centres unmarked) [Compound 74, 4-[8-(tert-butyl)-5,6,7,8-tetrahydro-3-quinolylamino]-2-[3-methoxy-4-(3-piperidinopropoxy)phenylamino] pyrimidine] | ≤ 500 nM
COc1cc(Nc2nccc(Nc3cnc4c(c3)C3CCC4CC3)n2)ccc1O[C@H]1C[C@H](N(C)C)C1 [Compound 75, 4-{3-azatricyclo[6.2.2.02,7]dodeca-2(7),3,5-trien-5-ylamino}-2-{3-methoxy-4-[(1r,3r)-3-(dimethylamino)cyclobutoxy]phenylamino}pyrimidine] | ≤ 500 nM
COc1cc(Nc2nccc(Nc3cnc4c(c3)C3CCC4C3)n2)ccc1O[C@H]1C[C@H](N(C)C)C1 (some centres unmarked) [Compound 76, 4-(3-azatricyclo[6.2.1.02,7]undeca-2,4,6-trien-5-ylamino)-2-{3-methoxy-4-[(1r,3r)-3-(dimethylamino)cyclobutoxy]phenylamino}pyrimidine] | ≤ 500 nM
COc1cc(Nc2nccc(Nc3cnc4c(c3)CCC3(CCCC3)C4)n2)ccc1O[C@H]1C[C@H](N(C)C)C1 [Compound 78, 4-(6′,8′-dihydro-5′H-spiro[cyclopentane-1,7′-quinolin]-3′-ylamino)-2-{3-methoxy-4-[(1r,3r)-3-(dimethylamino)cyclobutoxy]phenylamino}pyrimidine] | ≤ 500 nM
COc1cc(Nc2nccc(Nc3cnc4c(c3)CC3(CCCC3)CC4)n2)ccc1O[C@H]1C[C@H](N(C)C)C1 [Compound 79, 4-(7′,8′-dihydro-5′H-spiro[cyclopentane-1,6′-quinolin]-3′-ylamino)-2-{3-methoxy-4-[(1r,3r)-3-(dimethylamino)cyclobutoxy]phenylamino}pyrimidine] | ≤ 500 nM
COc1cc(Nc2nccc(Nc3cnc4c(c3)CC3(CCC3)CC4)n2)ccc1O[C@H]1C[C@H](N(C)C)C1 [Compound 80, 4-(7′,8′-dihydro-5′H-spiro[cyclobutane-1,6′-quinolin]-3′-ylamino)-2-{3-methoxy-4-[(1r,3r)-3-(dimethylamino)cyclobutoxy]phenylamino}pyrimidine] | ≤ 500 nM
COc1cc(Nc2nccc(Nc3cnc4c(c3)CC(F)(F)CC4)n2)ccc1O[C@H]1C[C@H](N(C)C)C1 [Compound 81, 4-(6,6-difluoro-5,6,7,8-tetrahydro-3-quinolylamino)-2-{3-methoxy-4-[(1r,3r)-3-(dimethylamino)cyclobutoxy]phenylamino}pyrimidine] | ≤ 500 nM
COc1cc(Nc2nccc(Nc3cnc4c(c3)CC(O)CC4)n2)ccc1O[C@H]1C[C@@H](N(C)C)C1 (some centres unmarked) [Compound 82, 3-(2-{3-methoxy-4-[(1s,3s)-3-(dimethylamino)cyclobutoxy]phenylamino}-4-pyrimidinylamino)-5,6,7,8-tetrahydro-6-quinolinol] | 500 to 2000 nM
COc1cc(Nc2nccc(Nc3cnc4ncc(Cl)cc4c3)n2)ccc1O[C@H]1C[C@@H](N(C)C)C1 [Compound 83, 4-(6-chloro-1,8-diaza-3-naphthylamino)-2-{3-methoxy-4-[(1s,3s)-3-(dimethylamino)cyclobutoxy]phenylamino}pyrimidine] | ≤ 500 nM
COc1cc(Nc2nccc(Nc3cnc4c(Cl)cncc4c3)n2)ccc1O[C@H]1C[C@@H](N(C)C)C1 [Compound 84, 4-(8-chloro-1,6-diaza-3-naphthylamino)-2-{3-methoxy-4-[(1s,3s)-3-(dimethylamino)cyclobutoxy]phenylamino}pyrimidine] | 500 to 2000 nM
COc1cc(Nc2nccc(Nc3cnc4cc(F)cnc4c3)n2)cnc1O[C@H]1C[C@@H](N(C)C)C1 [Compound 85, 4-(7-fluoro-1,5-diaza-3-naphthylamino)-2-{5-methoxy-6-[(1s,3s)-3-(dimethylamino)cyclobutoxy]-3-pyridylamino}pyrimidine] | 500 to 2000 nM
COc1cc(Nc2nccc(Nc3cnc4ncc(F)cc4c3)n2)ccc1O[C@H]1C[C@@H](N(C)C)C1 [Compound 86, 4-(6-fluoro-1,8-diaza-3-naphthylamino)-2-{3-methoxy-4-[(1s,3s)-3-(dimethylamino)cyclobutoxy]phenylamino}pyrimidine] | ≤ 500 nM
COc1cc(Nc2nccc(Nc3cnc4cnc(Cl)cc4c3)n2)ccc1O[C@H]1C[C@@H](N(C)C)C1 [Compound 87, 4-(6-chloro-1,7-diaza-3-naphthylamino)-2-{3-methoxy-4-[(1s,3s)-3-(dimethylamino)cyclobutoxy]phenylamino}pyrimidine] | ≤ 500 nM
COc1cc(Nc2nccc(Nc3cnc4cncc(F)c4c3)n2)ccc1O[C@H]1C[C@@H](N(C)C)C1 [Compound 88, N2-(4-((1s,3s)-3-(dimethylamino)cyclobutoxy)-3-methoxyphenyl)-N4-(5-fluoro-1,7-naphthyridin-3-yl)pyrimidine-2,4-diamine] | ≤ 500 nM
COc1cc(Nc2nccc(Nc3cnc4cc(F)c(F)cc4c3)n2)cnc1OC1CCNCC1 [Compound 89, N4-(6,7-difluoroquinolin-3-yl)-N2-(5-methoxy-6-(piperidin-4-yloxy)pyridin-3-yl)pyrimidine-2,4-diamine] | 500 to 2000 nM
COc1nc(N2CCN(C)CC2)ccc1Nc1nccc(Nc2cc3cccc(F)c3nc2O)n1 [Compound 90, 8-fluoro-3-{2-[2-methoxy-6-(4-methyl-1-piperazinyl)-3-pyridylamino]-4-pyrimidinylamino}-2-quinolinol] | ≤ 500 nM
